Experimental data reported in patent US20230192617A1, “AZABICYCLIC(THIO)AMIDES AS FUNGICIDAL COMPOUNDS” (Bayer CropScience Aktiengesellschaft, priority 2020, published 2023).

Assays:
[1] = tested on: Colletotrichum lindemuthianum; assay: In vivo preventive test on Colletotrichum lindemuthianum (leaf spot on bean); details: 168 h, 500 ppm of active ingredient, preventive spray on bean, evaluated 7 days after inoculation, read-out: efficacy
Outline: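 Young bean plants sprayed with compound in DMSO/acetone/Tween 80 diluted in water; solvent-only controls. Inoculated 24 h later with C. lindemuthianum spore suspension, then kept 24 h at 20 °C/100% RH and 6 days at 20 °C/90% RH.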

[2] = tested on: Pyrenophora teres; assay: B-10. Pyrenophora teres in vitro cell test; format: cell-based; details: 144 h, 20 ppm of active ingredient, 6 days incubation, liquid culture, absorbance, read-out: efficacy (inhibition of fungal growth)
Outline: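 Liquid-culture assay on a P. teres spore suspension with compounds added to the medium from DMSO solutions, final DMSO ≤1%. Mycelium growth read spectrometrically after 6 days. Inhibition calculated from absorbance against untreated control wells.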

[3] = tested on: Alternaria alternata; assay: Alternaria alternata in vitro cell test; format: cell-based; details: 120 h, 20 ppm of active ingredient, liquid culture, 5 days incubation, spectrometric measurement of mycelium growth, read-out: efficacy (inhibition of fungal growth)
Outline: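 Liquid culture assay in which A. alternata spores in medium received DMSO-solubilized compound (final DMSO ≤1%). After 5 days, mycelium growth was measured spectrometrically. Inhibition was calculated against fungicide-free control wells.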

[4] = tested on: Alternaria brassicae; assay: In vivo preventive test on Alternaria brassicae (leaf spot on radish or cabbage); details: 500 ppm of active ingredient, preventive spray on radish or cabbage, evaluated 3 to 4 days after inoculation, read-out: efficacy
Outline: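 Young radish or cabbage plants were sprayed with compound dissolved in DMSO/acetone/Tween 80 and diluted in water; controls received solvent only. Inoculation by spraying A. brassicae spore suspension 24 h later, then 3–4 days at 20 °C and 100% relative humidity.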

[5] = Measurement of Log P values by HPLC on reversed phase columns (EEC directive 79/831 Annex V.A8); format: physicochemical; details: reversed phase HPLC column, method [a]: LC-UV, acidic range, 0.1% formic acid in water and acetonitrile as eluent
Outline: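 Reversed-phase HPLC with UV detection per EEC 79/831 Annex V.A8, linear 10–95% acetonitrile gradient. Aqueous eluent: 0.1% formic acid (acidic), 0.001 M ammonium acetate (neutral), or 0.1% phosphoric acid (acidic); multiple values in one method joined by "+".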

[6] = tested on: Septoria tritici; assay: B-9. Septoria tritici in vitro cell test; format: cell-based; details: Zymoseptoria tritici, 168 h; 20 ppm of active ingredient; 7 days incubation; liquid culture, absorbance; read-out: efficacy (inhibition of fungal growth)
Description: B-9. Septoria tritici In Vitro Cell Test [table] Fungicides were solubilized in DMSO and the solution used to prepare the required range of concentrations. The final concentration of DMSO used in the assay was ≤1%. A spore suspension of S. tritici was prepared and diluted to the desired spore density. Fungicides were evaluated for their ability to inhibit spore germination and mycelium growth in liquid culture assay. The compounds were added in the desired concentration to the culture medium with spores. After 7 days incubation, fungi-toxicity of compounds was determined by spectrometric measurement of mycelium growth. Inhibition of fungal growth was determined by comparing the absorbance values in wells containing the fungicides with the absorbance in control wells without fungicides.

[7] = tested on: Botrytis cinerea; assay: B-11. Botrytis cinerea in vitro cell test; format: cell-based; details: 144 h, 20 ppm of active ingredient, 6 days incubation, liquid culture, absorbance, read-out: efficacy (inhibition of fungal growth)
Outline: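 B. cinerea spores were grown in liquid culture with compound (DMSO ≤1% final). Mycelium growth was measured spectrometrically after 6 days, with inhibition taken as absorbance relative to untreated control wells.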

[8] = tested on: Botrytis cinerea; assay: In vivo preventive test on Botrytis cinerea (grey mould); details: 500 ppm of active ingredient, preventive spray on gherkin or cabbage, evaluated 4 to 5 days after inoculation, read-out: efficacy
Outline: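 Young gherkin or cabbage plants were sprayed with compound in DMSO/acetone/Tween 80 diluted in water, then inoculated 24 hours later with a B. cinerea spore suspension. Incubation lasted 4 to 5 days: gherkin at 17° C., 90% relative humidity; cabbage at 20° C., 100% relative humidity.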

[9] = tested on: Colletotrichum lindemuthianum; assay: B-8. Colletotrichum lindemuthianum in vitro cell test; format: cell-based; details: 144 h, 20 ppm of active ingredient, 6 days incubation, liquid culture, absorbance, read-out: efficacy (inhibition of fungal growth)
Outline: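 Spore suspension of C. lindemuthianum in liquid medium exposed to DMSO-solubilized compounds (final DMSO ≤1%) for 6 days. Mycelial growth read by absorbance, with inhibition calculated relative to compound-free control wells.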

[10] = tested on: Sphaerotheca fuliginea; assay: In vivo preventive test on Sphaerotheca fuliginea (powdery mildew on cucurbits); details: Podosphaera fuliginea, 192 h; 500 ppm of active ingredient; preventive spray on gherkin; evaluated 8 days after inoculation; read-out: efficacy
Outline: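 Young gherkin plants were sprayed with compound in DMSO/acetone/Tween 80 diluted in water. They were inoculated 24 h later with a spore suspension of Sphaerotheca fuliginea. Plants were then kept for 8 days at 20 °C and 70–80% relative humidity.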

[11] = tested on: Pyrenophora teres; assay: In vivo preventive test on Pyrenophora teres (net blotch on barley); details: 240 h, 500 ppm of active ingredient, preventive spray on barley, evaluated 10 days after inoculation, read-out: efficacy
Description: B-3. In Vivo Preventive Test on Pyrenophora Teres (Net Blotch on Barley) [table] The active ingredients were made soluble and homogenized in a mixture of Dimethyl sulfoxide/Acetone/Tween® 80 and then diluted in water to the desired concentration. The young plants of barley were treated by spraying the active ingredient prepared as described above. Control plants were treated only with an aqueous solution of Acetone/Dimethyl sulfoxide/Tween® 80. After 24 hours, the plants were contaminated by spraying the leaves with an aqueous suspension of Pyrenophora teres spores. The contaminated barley plants were incubated for 48 hours at 20° C. and at 100% relative humidity and then for 8 days at 20° C. and at 70-80% relative humidity.

Row | SMILES | chromatographic logP [5] | pest or weed control at 500 ppm [1] | inhibition at 20 ppm [2] | inhibition at 20 ppm [3] | pest or weed control at 500 ppm [4] | inhibition at 20 ppm [6] | inhibition at 20 ppm [7] | pest or weed control at 500 ppm [8] | inhibition at 20 ppm [9] | pest or weed control at 500 ppm [10] | pest or weed control at 500 ppm [11]
1 | Cc1ccc(C(F)(F)CNC(=O)c2c(Oc3cccc(C4CC4)c3F)cnc3nccnc23)c(C)c1 [I-099] | 3.71 | 90 to 100% | 90 to 100% | 90 to 100% | 90 to 100% | 80 to 89% | 90 to 100% | 90 to 100% | 90 to 100% | – | –
2 | O=C(NCC(F)c1ccc(Cl)cc1Cl)c1c(Oc2cccc(C(F)F)c2)nnc2c1CCCC2 (stereo not drawn) [I-177] | 3.63 | – | 90 to 100% | 90 to 100% | – | 90 to 100% | 90 to 100% | – | 90 to 100% | – | –
3 | Cc1ccc(C(F)CNC(=O)c2c(Oc3cccc(Cl)c3)nnc3c2CCCC3)c(C)c1 (stereo not drawn) [I-233] | 3.73 | – | 90 to 100% | 90 to 100% | – | 90 to 100% | 90 to 100% | – | 90 to 100% | – | –
4 | Cc1cc(Cl)ccc1C(F)(F)CNC(=O)c1c(Oc2cccc(C(F)F)c2)nnc2c1CCCC2 [I-163] | – | – | 90 to 100% | 90 to 100% | – | 90 to 100% | 90 to 100% | – | 90 to 100% | – | –
5 | Cc1ccc(C(F)(F)CNC(=O)c2c(Oc3cccc(Br)c3)cnc3nccnc23)c(C)c1 [I-241, 7-(3-bromophenoxy)-N-[2-(2,4-dimethylphenyl)-2,2-difluoro-ethyl]pyrido[2,3-b]pyrazine-8-carboxamide] | 3.46 | 90 to 100% | 90 to 100% | 90 to 100% | 90 to 100% | 90 to 100% | 90 to 100% | 90 to 100% | 90 to 100% | – | –
6 | O=C(NCC(F)c1ccc(Cl)cc1Cl)c1c(Oc2cccc(Cl)c2)nnc2c1CCCC2 (stereo not drawn) [I-179] | 3.89 | – | 90 to 100% | 90 to 100% | – | 90 to 100% | 90 to 100% | – | 90 to 100% | – | –
7 | Cc1ccc(C(F)(F)CNC(=O)c2c(Oc3cccc(Cl)c3)cnc3nccnc23)c(C)c1 [I-234] | 3.37 | 80 to 89% | 90 to 100% | 90 to 100% | 90 to 100% | 90 to 100% | 90 to 100% | 90 to 100% | 90 to 100% | – | –
8 | O=C(NCC(F)(F)c1ccc(Cl)cc1)c1c(Oc2cccc(C(F)F)c2)nnc2c1CCCC2 [I-120] | 3.37 | – | 90 to 100% | 90 to 100% | – | 80 to 89% | 90 to 100% | – | 90 to 100% | – | –
9 | Cc1ccc(C(F)CNC(=O)c2c(Oc3cccc(C(F)(F)F)c3)nnc3c2CCC3)c(C)c1 (stereo not drawn) [I-138] | 3.84 | – | 90 to 100% | 90 to 100% | – | 90 to 100% | 90 to 100% | – | 90 to 100% | – | –
10 | Cc1ccc([C@@H](F)CNC(=O)c2c(Oc3cccc(C(F)(F)F)c3)nnc3c2OCC(C)(C)CO3)c(C)c1 (racemic) [I-156] | 4.15 | – | 90 to 100% | 90 to 100% | – | 90 to 100% | 90 to 100% | – | 90 to 100% | – | –
11 | Cc1ccc(C(F)(F)CNC(=O)c2c(Oc3cccc(Br)c3)cnc3ccccc23)c(C)c1 [I-226] | 4.48 | 90 to 100% | 90 to 100% | 90 to 100% | 90 to 100% | – | 90 to 100% | 90 to 100% | 90 to 100% | 90 to 100% | 70 to 79%

The next lines start with results.

Row | chromatographic logP [5] | SMILES | pest or weed control at 500 ppm [1] | inhibition at 20 ppm [2] | inhibition at 20 ppm [3] | pest or weed control at 500 ppm [4] | inhibition at 20 ppm [6] | inhibition at 20 ppm [7] | pest or weed control at 500 ppm [8] | inhibition at 20 ppm [9] | pest or weed control at 500 ppm [10] | pest or weed control at 500 ppm [11]
12 | 3.7 | Cc1ccc(C(F)(F)CNC(=O)c2c(Oc3cccc(C(F)(F)F)c3)nnc3c2COCC3)c(C)c1 [I-122] | 80 to 89% | 90 to 100% | 90 to 100% | 90 to 100% | 90 to 100% | 90 to 100% | 90 to 100% | 90 to 100% | 90 to 100% | –
13 | 4.17 | Cc1ccc(CCNC(=O)c2c(Oc3cccc(C(F)(F)F)c3)cnc3ccccc23)c(C)c1 [I-002] | – | – | 90 to 100% | – | 90 to 100% | 90 to 100% | 90 to 100% | 90 to 100% | 90 to 100% | –
14 | 3.42 | O=C(NOCc1ccc(C(F)(F)F)cc1)c1c(Oc2cccc(C(F)(F)F)c2)nnc2ccccc12 [I-089] | – | 90 to 100% | 90 to 100% | 90 to 100% | 80 to 89% | 90 to 100% | 70 to 79% | 90 to 100% | – | –
15 | 5 | Cc1ccc(C(F)(F)CNC(=O)c2c(Oc3cccc(C(F)(F)F)c3)nnc3cc(C4CC4)ccc23)cc1C [I-235] | – | 90 to 100% | 90 to 100% | 90 to 100% | 90 to 100% | 90 to 100% | 90 to 100% | 90 to 100% | 90 to 100% | 80 to 89%
16 | 3.53 | O=C(NCCc1ccc2c(c1)CCO2)c1c(Oc2cccc(C(F)(F)F)c2)nnc2ccccc12 [I-081] | 90 to 100% | 90 to 100% | 90 to 100% | 90 to 100% | 70 to 79% | 90 to 100% | 90 to 100% | 90 to 100% | – | –
17 | 5.12 | Cc1ccc(C(F)(F)CNC(=O)c2c(Oc3cccc(C(F)(F)F)c3)nnc3cc(C4CC4)ccc23)c(C)c1 [I-242] | – | 90 to 100% | 90 to 100% | 90 to 100% | 80 to 89% | 90 to 100% | 90 to 100% | 90 to 100% | 80 to 89% | 70 to 79%
18 | 2.91 | O=C(NCCc1ncc(Cl)cn1)c1c(Oc2cccc(C(F)(F)F)c2)nnc2ccccc12 [I-077] | 70 to 79% | 90 to 100% | 90 to 100% | 90 to 100% | 90 to 100% | 90 to 100% | 90 to 100% | 90 to 100% | – | –
